Test results: PMC6271834, “Antiprotozoal Activity of (E)-Cinnamic N-Acylhydrazone Derivatives” (Molecules, 2014)
Read-outs that look alike come from different tables or passages of the source.

What was measured:
[1] = test system: Trypanosoma brucei rhodesiense (STIB900); assay: Trypanocidal activity, bloodstream forms, Alamar Blue; assay type: cell-based; conditions: read-out: T.b. rhod. IC50
Protocol: Minimum essential medium (50 μL) supplemented according to a known procedure with 2-mercaptoethanol and 15% heat-inactivated horse serum was added to each well of a 96-well microtiter plate. Serial drug dilutions were prepared covering a range from 90 to 0.123 μg/mL. Then 10^4 bloodstream forms of T. b. rhodesiense STIB 900 in 50 μL were added to each well and the plate incubated at 37 °C under a 5% CO2 atmosphere for 72 h. Ten microliters of Alamar Blue (containing 12.5 mg resazurin dissolved in […] distilled water) were then added to each well and incubation continued for a further 2–4 h. The Alamar Blue dye is an indicator of cellular growth and/or viability. The blue, non-fluorescent, oxidized form becomes pink and fluorescent upon reduction by living cells. The plate was then read in a Spectramax Gemini XS microplate fluorometer (Molecular Devices Cooperation, Sunnyvale, CA, USA) using an excitation wavelength of 536 nm and emission wavelength of 588 nm. Fluorescence development was measured and expressed as percentage of the control. Data were transferred into the graphic programme Softmax Pro (Molecular Devices,) which calculated IC50 values. Melarsoprol was used as standard.

L-6 rat myoblast cells = assay: Cytotoxicity to L-6 cells, Alamar Blue; assay type: cell-based; conditions: for IC50: read-out: Cytot. L-6 Cells IC50
Protocol: Exactly 100 μL RPMI 1640 medium supplemented with 1% L-glutamine (200 mM) and 10% fetal bovine serum containing 4 × 10^4 L-6 cells (rat skeletal myoblasts) were added to each well of a 96-well microtiter plate. After 24 h, the medium was removed from all wells and replaced by 100 μL of fresh medium containing a 3-fold serial drug dilution covering a range from 200 μg/mL to 0.274 μg/mL, except for the control wells. After 72 h of incubation 10 μL of Alamar Blue (12.5 mg resazurin dissolved in 100 mL phosphate buffered saline) were added to each well and the plates were incubated for another 2 h. Then the plates were read with a Spectramax Gemini XS microplate fluorometer as described for the leishmanicidal assay. Podophyllotoxin was used as standard drug.

[2] = test system: Trypanosoma brucei rhodesiense (STIB900); assay: Trypanocidal activity, bloodstream forms, Alamar Blue; assay type: cell-based; conditions: L-6 cells versus T. b. rhodesiense
[3] = test system: Leishmania donovani (MHOM/ET/67/L82) axenic amastigotes; assay: Leishmanicidal activity, axenic amastigotes, Alamar Blue; assay type: cell-based; conditions: for SI (Selectivity Index for leishmanicidal activity): L-6 cells versus L. donovani; for IC50: Leishmania donovani, axenic amastigotes, strain MHOM/ET/67/L82, 72 h, means of two determinations, read-out: L. donovani IC50
Protocol: Amastigotes of Leishmania donovani strain MHOM/ET/67/L82 were grown in axenic culture at 37 °C in SM medium at pH 5.4 supplemented with 10% heat-inactivated fetal bovine serum under an atmosphere of 5% CO2 in air. One hundred microliters of culture medium with 10^5 amastigotes from axenic culture with or without the compound to test were seeded in 96-well microtiter plates. […] Each drug was tested in duplicate and each assay was repeated at least once. After 72 h of incubation the plates were inspected under an inverted microscope to assure growth of the controls and sterile conditions. Ten microliters of Alamar Blue (12.5 mg resazurin dissolved in 100 mL phosphate buffered saline) were then added to each well and the plates incubated for another 2 h. Then the plates were read in a Spectramax Gemini XS microplate fluorometer (Molecular Devices Cooperation, Sunnyvale, CA, USA) using an excitation wave length of 536 nm and an emission wave length of 588 nm. Data were analyzed using the software Softmax Pro (Molecular Devices Cooperation, Sunnyvale, CA, USA). Decrease of fluorescence (=inhibition) was expressed as percentage of the fluorescence of control cultures. For the serial drug dilution assay inhibition values were plotted against the drug concentrations and IC50 values were calculated from the sigmoidal inhibition curves.

cruzipain = test system: cruzipain; set-up: method as in doi:10.1590/S0103-50532010000100021; conditions: cited from earlier work
[4] = test system: L. major cathepsin L-like cysteine protease; set-up: method as in PMID 9371086; conditions: cited from earlier work
[5] = bloodstream forms, STIB900, 72 h, means of two determinations
[6] = L6, L-6 rat skeletal myoblasts, 72 h, means of two determinations
[7] = L-6 rat skeletal myoblasts, 72 h, means of two determinations

Row | Compound | IC50 [1, 5] | IC50 (L-6 rat myoblast cells; [6]) | SI (Selectivity Index for trypanocyde activity) [2] | SI (Selectivity Index for leishmanicidal activity) [3] | IC50 [3] | IC50 (cruzipain) | Cytot. L-6 Cells IC50 (L-6 rat myoblast cells; [7]) | IC50 [4] | IC50 ([1]; 72 h) | IC50 (L-6 rat myoblast cells; Rattus norvegicus, L6, 72 h)
1 | O=C(/C=C/c1ccccc1)N/N=C/c1ccc(F)cc1 [Compound 8] | 284 µM | > 335 µM | >1.2 | >13.8 | 24.3 µM |  |  |  |  | 
2 | O=C(/C=C/c1ccccc1)N/N=C/c1ccc2c(c1)OCO2 [Compound 6] | 89.5 µM | 4.3 µM | 0.05 | 0.3 | 12.5 µM |  |  |  |  | 
3 | COc1ccc(/C=N/NC(=O)/C=C/c2ccccc2)cc1 [Compound 10] | 111 µM | > 321 µM |  |  | 13.8 µM |  |  |  |  | 
4 | O=C(/C=C/c1ccccc1)N/N=C/c1ccc(O)cc1 [Compound 13] | 82.5 µM | 40.4 µM | 0.5 | 1.1 | 36.7 µM |  |  |  |  | 
5 | (E)-1-(benzo[d][1,3]dioxol-5-yl)-3-(4-bromophenyl)prop-2-en-1-one [Compound 1] |  |  |  |  |  | 20 µM |  |  |  | 
6 | O=C(/C=C/c1ccccc1)N/N=C/c1ccccc1O [Compound 15, (2E)-N'-[(E)-2-Hydroxybenzylidene]-3-phenylprop-2-enohydrazide] | 6.72 µM | 14.9 µM | 2.2 | 4.1 | 3.61 µM |  | cytotoxic |  |  | 
7 | O=C(/C=C/c1ccccc1)NN=Cc1ccc(O)c(O)c1 [Compound 5, (E)-N'-(3,4-dihydroxybenzylidene)cinnamohydrazide] | 1.93 µM | 14 µM | 7.3 | 1.2 | 11.7 µM |  | cytotoxic |  |  | 
8 | O=C(/C=C/c1ccccc1)N/N=C/c1ccc([N+](=O)[O-])cc1 [Compound 9] | > 300 µM | 255 µM |  | 24.1 | 10.6 µM |  |  |  |  | 
9 | (E)-3-hydroxy-N'-((2-hydroxynaphthalen-1-yl)methylene)-7-methoxy-2-naphthohydrazide [Compound 2] |  |  |  |  |  |  |  | 0.5 µM |  | 
10 | COc1ccc(/C=N/NC(=O)/C=C/c2ccccc2)cc1O [Compound 16] | 80.1 µM | 48.1 µM | 0.6 | 1.4 | 33.3 µM |  |  |  |  | 
11 | COc1cc(/C=N/NC(=O)/C=C/c2ccccc2)ccc1O [Compound 4] | 40.8 µM | 95.4 µM | 2.3 | 4.4 | 21.7 µM |  |  |  |  | 
12 | O=C(/C=C/c1ccccc1)N/N=C/c1ccccc1 [Compound 12, (2E)-N'-[(E)-Benzylidene]-3-phenylprop-2-enohydrazide] | > 300 µM | 157 µM |  | 3.6 | 43.1 µM |  |  |  |  | 
13 | CCCCCCCCCCCCCCCCOP(=O)([O-])OCC[N+](C)(C)C [MTS, Miltefosine, reference compound] |  |  |  |  | 0.348 µM |  |  |  |  | 
14 | COc1ccc(/C=N/NC(=O)/C=C/c2ccccc2)cc1OC [Compound 14] | 67.6 µM | > 290 µM | >4.3 | >9.3 | 31.2 µM |  |  |  |  | 
15 | Nc1nc(N)nc(Nc2ccc([As]3SCC(CO)S3)cc2)n1 (centres unmarked) [MLSP, Melarsoprol, reference compound] |  |  |  |  |  |  |  |  | 0.003 µM | 
16 | O=C(/C=C/c1ccccc1)N/N=C/c1ccc(Cl)cc1 [Compound 11, (2E)-N'-[(E)-4-Chlorobenzylidene]-3-phenylprop-2-enohydrazide] | 121 µM | 65.5 µM | 0.5 | 6.0 | 10.8 µM |  |  |  |  | 
17 | COc1cc([C@@H]2c3cc4c(cc3[C@H](O)[C@H]3COC(=O)[C@H]23)OCO4)cc(OC)c1OC [PPT, Podophyllotoxin, reference compound] |  |  |  |  |  |  |  |  |  | 0.006 µM
18 | COc1cc(/C=N/NC(=O)/C=C/c2ccccc2)cc(OC)c1OC [Compound 7] | 49.3 µM | 120 µM | 2.4 | 34.3 | 3.5 µM |  |  |  |  | 
